# Experimental data taken from ChEMBL document CHEMBL5465560, “Selectivity Literature for EUbOPEN Chemogenomic Library” (2024).
# Columns and labels:
# [1] = target: Macrophage colony-stimulating factor 1 receptor (Homo sapiens) (UniProt P07333); test: Selectivity interaction (KinomeScan (DiscoverX)) EUB0000229b CSF1R; conditions: at 10 µM
# [2] = target: T1, Dual specificity mitogen-activated protein kinase kinase 3 (Homo sapiens) (UniProt P46734); test: Selectivity interaction (Kinase panel (Invitrogen)) EUB0000639a MAP2K3; conditions: at 200 nM
# T1 sequence (whole entry): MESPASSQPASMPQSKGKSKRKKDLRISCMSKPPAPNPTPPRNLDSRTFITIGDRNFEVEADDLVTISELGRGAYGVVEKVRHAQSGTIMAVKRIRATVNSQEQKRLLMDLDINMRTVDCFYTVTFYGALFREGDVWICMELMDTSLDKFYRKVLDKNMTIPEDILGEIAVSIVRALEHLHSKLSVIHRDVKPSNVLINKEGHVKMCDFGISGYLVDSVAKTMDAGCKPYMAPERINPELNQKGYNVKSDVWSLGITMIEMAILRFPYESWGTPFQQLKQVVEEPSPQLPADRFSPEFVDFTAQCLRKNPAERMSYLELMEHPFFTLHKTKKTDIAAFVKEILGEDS
# [3] = target: T2, Phosphatidylinositol 5-phosphate 4-kinase type-2 beta (Homo sapiens) (UniProt P78356); conditions: at 10 µM
# T2 sequence (whole entry): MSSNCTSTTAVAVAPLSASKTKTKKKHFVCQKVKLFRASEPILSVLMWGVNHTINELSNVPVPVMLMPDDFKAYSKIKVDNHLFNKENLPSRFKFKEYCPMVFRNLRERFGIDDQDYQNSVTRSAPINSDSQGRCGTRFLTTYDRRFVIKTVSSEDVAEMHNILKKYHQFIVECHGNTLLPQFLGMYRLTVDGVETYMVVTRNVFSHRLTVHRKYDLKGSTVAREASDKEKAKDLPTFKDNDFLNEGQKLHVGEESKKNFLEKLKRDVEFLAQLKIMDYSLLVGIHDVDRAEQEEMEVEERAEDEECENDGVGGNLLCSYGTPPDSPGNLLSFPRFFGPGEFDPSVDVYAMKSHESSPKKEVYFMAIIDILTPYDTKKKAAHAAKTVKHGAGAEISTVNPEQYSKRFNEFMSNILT
# [4] = target: T3, Myosin-IIIb (Homo sapiens) (UniProt Q8WXR4); test: Selectivity interaction (KinomeScan (DiscoverX)) EUB0000045b MYO3B
# T3 sequence (whole entry): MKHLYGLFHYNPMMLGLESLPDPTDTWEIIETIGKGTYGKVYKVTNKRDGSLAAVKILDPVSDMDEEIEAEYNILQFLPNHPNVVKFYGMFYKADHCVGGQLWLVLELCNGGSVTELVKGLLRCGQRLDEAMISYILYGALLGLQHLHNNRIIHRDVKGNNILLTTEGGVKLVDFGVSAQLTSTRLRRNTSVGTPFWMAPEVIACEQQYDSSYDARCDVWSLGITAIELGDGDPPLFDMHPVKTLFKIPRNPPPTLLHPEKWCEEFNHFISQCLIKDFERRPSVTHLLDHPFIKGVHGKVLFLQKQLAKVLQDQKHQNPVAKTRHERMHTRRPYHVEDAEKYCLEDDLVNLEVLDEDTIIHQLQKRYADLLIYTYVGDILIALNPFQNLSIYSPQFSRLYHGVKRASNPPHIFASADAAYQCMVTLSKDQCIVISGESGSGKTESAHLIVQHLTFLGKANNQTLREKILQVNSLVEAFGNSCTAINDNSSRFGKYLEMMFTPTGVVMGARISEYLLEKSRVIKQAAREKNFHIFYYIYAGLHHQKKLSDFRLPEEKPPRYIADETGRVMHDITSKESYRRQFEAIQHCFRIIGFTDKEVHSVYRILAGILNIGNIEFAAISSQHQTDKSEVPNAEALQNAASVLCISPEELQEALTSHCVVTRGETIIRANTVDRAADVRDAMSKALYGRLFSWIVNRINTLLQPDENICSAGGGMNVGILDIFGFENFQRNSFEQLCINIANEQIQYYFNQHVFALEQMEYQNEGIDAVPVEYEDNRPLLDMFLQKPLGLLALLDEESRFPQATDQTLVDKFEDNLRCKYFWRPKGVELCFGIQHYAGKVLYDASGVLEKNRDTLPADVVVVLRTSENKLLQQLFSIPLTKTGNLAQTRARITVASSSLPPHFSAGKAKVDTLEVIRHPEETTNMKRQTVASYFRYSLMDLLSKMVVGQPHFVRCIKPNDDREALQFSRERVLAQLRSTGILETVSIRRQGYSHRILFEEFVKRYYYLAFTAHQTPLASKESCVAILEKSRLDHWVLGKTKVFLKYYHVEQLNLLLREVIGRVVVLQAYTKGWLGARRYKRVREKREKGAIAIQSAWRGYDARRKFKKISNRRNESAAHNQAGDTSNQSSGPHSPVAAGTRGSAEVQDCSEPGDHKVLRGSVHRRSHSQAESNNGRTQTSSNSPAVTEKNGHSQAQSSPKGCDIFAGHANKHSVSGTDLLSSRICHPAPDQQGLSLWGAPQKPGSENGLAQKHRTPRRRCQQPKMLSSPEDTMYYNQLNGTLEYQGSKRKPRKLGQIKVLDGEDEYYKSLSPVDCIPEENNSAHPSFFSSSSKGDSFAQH
# [5] = target: T4, Non-receptor tyrosine-protein kinase TNK1 (Homo sapiens) (UniProt Q13470); test: Selectivity interaction (KinomeScan (DiscoverX)) EUB0000618a TNK1; conditions: at 10 µM
# T4 sequence (whole entry): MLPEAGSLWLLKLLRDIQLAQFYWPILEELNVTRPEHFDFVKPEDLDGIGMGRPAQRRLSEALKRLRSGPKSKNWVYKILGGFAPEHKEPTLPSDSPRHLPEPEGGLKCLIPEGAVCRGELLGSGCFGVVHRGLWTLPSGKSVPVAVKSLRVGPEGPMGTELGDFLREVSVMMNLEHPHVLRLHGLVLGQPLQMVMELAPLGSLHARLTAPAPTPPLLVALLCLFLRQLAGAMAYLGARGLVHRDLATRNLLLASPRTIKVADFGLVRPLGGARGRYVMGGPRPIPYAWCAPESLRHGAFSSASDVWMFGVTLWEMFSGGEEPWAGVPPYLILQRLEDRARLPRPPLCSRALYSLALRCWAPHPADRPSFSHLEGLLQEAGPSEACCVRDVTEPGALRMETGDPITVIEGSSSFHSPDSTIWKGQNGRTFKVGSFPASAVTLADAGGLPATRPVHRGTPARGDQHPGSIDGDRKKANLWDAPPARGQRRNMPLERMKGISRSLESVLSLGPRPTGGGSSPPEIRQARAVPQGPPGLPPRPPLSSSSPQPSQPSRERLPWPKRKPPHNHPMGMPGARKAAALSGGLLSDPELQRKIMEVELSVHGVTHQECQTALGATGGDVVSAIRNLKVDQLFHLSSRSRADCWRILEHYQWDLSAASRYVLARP
# [6] = target: Cyclin-dependent kinase 16 (Homo sapiens) (UniProt Q00536); test: Selectivity interaction (KinomeScan (DiscoverX)) EUB0000655a CDK16; conditions: at 10 µM
# Chain of Cyclin-dependent kinase 16 (Homo sapiens) (Q00536 whole entry): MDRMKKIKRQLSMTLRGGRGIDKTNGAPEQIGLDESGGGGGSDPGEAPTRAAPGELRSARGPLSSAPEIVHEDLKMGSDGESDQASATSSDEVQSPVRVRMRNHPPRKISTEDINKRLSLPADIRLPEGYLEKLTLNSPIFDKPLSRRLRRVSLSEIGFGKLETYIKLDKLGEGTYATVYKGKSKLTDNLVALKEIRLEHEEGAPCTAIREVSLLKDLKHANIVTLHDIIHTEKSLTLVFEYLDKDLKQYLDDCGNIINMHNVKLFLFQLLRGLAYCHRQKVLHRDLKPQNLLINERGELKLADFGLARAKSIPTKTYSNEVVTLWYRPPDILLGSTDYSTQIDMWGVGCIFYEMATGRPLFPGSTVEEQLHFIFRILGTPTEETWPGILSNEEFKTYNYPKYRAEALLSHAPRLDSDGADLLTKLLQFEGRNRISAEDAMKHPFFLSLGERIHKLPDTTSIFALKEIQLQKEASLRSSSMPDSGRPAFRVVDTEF
# Chain of Macrophage colony-stimulating factor 1 receptor (Homo sapiens) (P07333 whole entry): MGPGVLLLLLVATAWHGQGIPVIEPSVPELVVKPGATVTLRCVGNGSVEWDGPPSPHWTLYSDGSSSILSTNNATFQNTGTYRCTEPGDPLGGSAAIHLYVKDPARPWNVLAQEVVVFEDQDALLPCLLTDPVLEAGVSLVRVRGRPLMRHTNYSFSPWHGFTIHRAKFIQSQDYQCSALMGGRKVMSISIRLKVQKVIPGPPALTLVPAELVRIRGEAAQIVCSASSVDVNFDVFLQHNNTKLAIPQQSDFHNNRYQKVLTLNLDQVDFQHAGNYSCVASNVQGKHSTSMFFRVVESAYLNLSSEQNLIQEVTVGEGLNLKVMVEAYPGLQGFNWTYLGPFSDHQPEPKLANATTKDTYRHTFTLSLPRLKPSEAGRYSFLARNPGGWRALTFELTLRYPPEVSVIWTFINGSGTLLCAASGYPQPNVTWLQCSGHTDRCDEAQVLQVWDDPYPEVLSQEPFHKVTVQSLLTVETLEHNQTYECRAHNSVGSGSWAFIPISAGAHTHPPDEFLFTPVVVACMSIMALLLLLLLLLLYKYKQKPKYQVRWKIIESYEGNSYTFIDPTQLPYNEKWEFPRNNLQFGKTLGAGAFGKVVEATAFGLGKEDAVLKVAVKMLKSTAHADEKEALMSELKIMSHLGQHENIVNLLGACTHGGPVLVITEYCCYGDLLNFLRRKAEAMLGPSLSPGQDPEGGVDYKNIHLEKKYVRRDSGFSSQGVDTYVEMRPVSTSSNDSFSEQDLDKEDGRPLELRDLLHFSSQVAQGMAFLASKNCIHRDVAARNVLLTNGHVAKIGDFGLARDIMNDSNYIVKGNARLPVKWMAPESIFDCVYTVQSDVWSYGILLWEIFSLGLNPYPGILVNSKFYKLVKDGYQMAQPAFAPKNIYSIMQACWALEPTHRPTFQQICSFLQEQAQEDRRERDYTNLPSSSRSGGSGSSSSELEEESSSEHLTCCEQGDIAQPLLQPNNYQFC
compound,measurement,setting,value
COc1cc(N(C)c2ccnc3ccc(C(F)(F)F)cc23)cc(OC)c1OC,% binding,[1],96%
CC[C@@H]1[C@H](F)C(=O)N[C@@H]1COc1nccc2cc(C(N)=O)c(OC)cc12 [ZIMLOVISERTIB],% of inhibition,[2],0.853%
COCC(=O)NC/C=C/c1ccc2ncnc(Nc3ccc(Oc4ccc(C)nc4)c(C)c3)c2c1 [CP-724714],% of control,[3],100%
C=CC(=O)Nc1cc(-n2c(=O)ccc3cnc4ccc(-c5ccc(NS(C)(=O)=O)cc5)cc4c32)ccc1C,% of control,[4]; at 1 µM,92%
same,% of control,[4]; at 10 µM,100%
O[C@H]1CC[C@H](Nc2ncc3nc(Nc4c(F)cc(F)cc4F)n([C@H]4CCOC4)c3n2)CC1,% of control,[5],97%
CN(C)CCOc1ccc(-c2nc(-c3ccncc3)c(-c3ccc4c(c3)CC/C4=N\O)[nH]2)cc1,% of control,[6],100%
